e = 2'-O-(2-methoxyethyl) (MOE); d = 2'-deoxy (DNA)
Legend:
LNCaP cells [1] = test: Flow cytometry of apoptotic sub-G1 fraction (propidium iodide staining); type: cell-based, human; settings: 500 nmol/L custirsen or ScrB, 10 μmol/L AR1, 48 hrs
Method: After a time course exposure, cell growth was measured by crystal violet assay as previously described (cleave et al., 2005). Detection and quantitation of apoptotic cell cycle population were analyzed by flow-cytometry (Beckman Coulter Epics Elite; Beckman, Inc.) based on 2N and 4N DNA content as previously described (Lamoureux et al., 2011). For CSS condition, LNCaP cells were plated in RPMI with 5% FBS switched to CSS at the next day, and treatment was started same as FBS condition. Each assay was done in triplicate three times.
Combination treatment enhances LNCaP apoptosis in flow cytometry analysis. […] The proportion of cells in sub-G0, G0-G1, S, G2-M is determined by propidium iodide staining. […] P value represents between treatment arms and their respective controls *p<0.05, **p<0.01, ***p<0.001 (Wilcoxon matched-pairs test).

clusterin (CLU) = test: Western blot of clusterin (CLU) expression after AR pathway inhibition; type: cell-based, human
Method: The immune complexes were recovered with protein-G sepharose for 2 h and then washed with radioimmunoprecipitation assay buffer (RIPA) at least thrice, centrifuged, and submitted to SDS-PAGE, followed by Western blotting. […] Cells are harvested and performed for western blot analysis.

[2] = test system: GRP78, ATF4, IRE1, CHOP and cleaved-ATF6; test: ER stress marker expression after AR1; type: cell-based; settings: concomitant with CLU induction
Excerpt: ER stress activates a complex intracellular signaling pathway, called the unfolded protein response (UPR), which is tailored to re-establish protein homeostasis (proteostasis) by inhibiting protein translation and promoting ER-associated protein degradation via the ubiquitin-proteasome system (UPS).

CRPC LNCaP xenografts = test: Castration-resistant LNCaP xenograft in castrated male athymic nude mice; type: in vivo; settings: week 16 from start of treatment; euthanasia for tumour volume exceeding 10% of body weight
Method: The effects of combination treatment on castration-resistant LNCaP tumor growth were assessed in castrated male athymic nude mice. Male athymic nude mice were inoculated with LNCaP cells in Matrigel in two sites of mouse flank lesion. […]. Custirsen (10 mg/kg/each dose) or SCRB (10 mg/kg/each dose) was injected i.p. once daily for the first week and then three times per week. […] Tumor volume was measured once per week. Serum PSA was determined weekly. PSA doubling time (PSAdt) and velocity were calculated by the log-slope method (PSAt−PSAinitial×e^mt). All animal procedures were performed according to the guidelines of the Canadian Council on Animal Care and appropriate institutional certification.
Male athymic mice (Harlan Sprague-Dawley, Inc.) were injected s.c. with 1×10^6 LNCaP cells. When tumors grow in 150 mm^3 and serum PSA was >50 ng/ml, mice are castrated. […] Each experimental group consisted of 13 mice. […] Tumor volume and serum PSA was measured as previously described (Sowery et al., 2008). All animal procedures were performed according to the guidelines of the Canadian Council on Animal Care. Each three mice xenografts were sacrificed at 7 days after start treatment and the rest were harvested the end of the study and snap-frozen in liquid nitrogen. […]

[3] = humans; cited from earlier work
[4] = test system: Akt and p90Rsk phosphorylation; test: Western blot of Akt and p90Rsk phosphorylation; type: cell-based, human; settings: FIG. 42B
Method: YB-1 binds to CLU promoter leading to increased CLU expression after ER stress (Shiota et al., 2011). […]. Western blot analysis is done using phospho Akt, phospho ERK, Akt and ERK antibodies. […]. […] After 48 h treatment, western blot analysis is done using phospho Akt, phospho ERK, phospho mTOR, phospho P70S6K, Akt, ERK, mTOR and P70S6K antibodies.

LNCaP cells [5] = test: Autophagy induction; type: cell-based, human
CRPC = settings: combined with docetaxel chemotherapy; cited from earlier work
[6] = test system: AR transcriptional activity; test: PSA-luciferase reporter assay of R1881 induced AR transcriptional activity; type: cell-based, human; settings: LNCaP cells; 500 nmol/L custirsen, 10 μmol/L AR1, 1 nmol/L R1881
Method: Effect of combination treatment on AR transactivation and translocation. […] Cells were harvested, and luciferase activity was determined. Columns represent means of at least three independent experiments done in triplicate. PSA activation was normalized Renilla-luciferase activity.
LNCaP cells were seeded at a density of 5×10^4 in 12-well plates and transfected the following day with custirsen or SCRB. […] Reporter assays were normalized to Renilla and luciferase activity expressed by Firefly to Renilla ratio in arbitrary light units. All experiments were carried out in triplicate wells and repeated five times using different preparations of plasmids.
The effects of combination treatment on androgen-induced, AR-mediated gene activation were evaluated.

AR = molecular target: T1, AR (Homo sapiens, UniProt P10275, T878A); test: Western blot of AR protein expression; settings: FIG. 17: LNCaP, 500 nM custirsen 48 h, then 10 μM AR1 48 hours
T1 sequence (P10275 1-920 T878A): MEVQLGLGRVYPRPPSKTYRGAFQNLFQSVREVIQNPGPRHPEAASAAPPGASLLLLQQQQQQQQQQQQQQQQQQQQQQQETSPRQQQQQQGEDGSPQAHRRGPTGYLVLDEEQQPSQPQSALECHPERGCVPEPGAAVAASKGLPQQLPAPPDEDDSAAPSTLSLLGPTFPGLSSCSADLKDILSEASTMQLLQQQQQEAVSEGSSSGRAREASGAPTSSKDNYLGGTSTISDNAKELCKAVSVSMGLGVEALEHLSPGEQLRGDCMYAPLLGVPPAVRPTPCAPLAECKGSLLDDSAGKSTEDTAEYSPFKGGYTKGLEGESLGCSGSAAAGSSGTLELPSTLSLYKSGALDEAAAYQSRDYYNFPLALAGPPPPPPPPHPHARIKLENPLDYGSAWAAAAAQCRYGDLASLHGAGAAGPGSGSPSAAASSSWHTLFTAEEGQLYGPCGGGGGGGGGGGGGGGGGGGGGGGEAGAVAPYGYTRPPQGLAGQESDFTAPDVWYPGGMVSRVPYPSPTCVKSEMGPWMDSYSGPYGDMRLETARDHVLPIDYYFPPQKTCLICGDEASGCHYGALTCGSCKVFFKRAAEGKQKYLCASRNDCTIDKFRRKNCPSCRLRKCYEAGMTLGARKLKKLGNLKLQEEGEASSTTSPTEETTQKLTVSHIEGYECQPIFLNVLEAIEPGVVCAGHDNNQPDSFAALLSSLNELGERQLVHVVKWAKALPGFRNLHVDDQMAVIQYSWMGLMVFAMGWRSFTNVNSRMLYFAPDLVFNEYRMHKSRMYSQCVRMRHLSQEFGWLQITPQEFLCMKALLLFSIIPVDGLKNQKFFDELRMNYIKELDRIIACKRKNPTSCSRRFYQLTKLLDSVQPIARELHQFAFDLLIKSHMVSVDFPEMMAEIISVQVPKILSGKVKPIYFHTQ
Method: Cells (1×10^6) were seeded in 10 cm dishes with RPMI medium containing 5% FBS. The next day, cells were transfected with 500 nM custirsen or control for 48 h.
AR expression is detected by western blot. […] “OTR” means cells treated with oligofectamime only.

Compound: ScrB: scrambled antisense oligonucleotide control, 5′-CAGCGCTGACAACAGTTTCAT-3′ (SEQ ID NO: 44) (2'-O-methoxyethyl modified control oligonucleotide, pattern not given here, further chemistry not given here)
- apoptosis (sub-G1 fraction) (LNCaP cells [1]): 15.2%

Compound: CC(=O)O[C@@H]1[C@@H](OC(C)=O)[C@@H](O)[C@H](Oc2c(-c3ccc(O)cc3)oc3cc(O)cc(O)c3c2=O)O[C@H]1C [SL101]
- effect on AR1 induced up-regulation of CLU (clusterin (CLU); inhibitor added with AR1): abrogates

Compound: CNC(=O)c1ccc(N2C(=S)N(c3ccc(C#N)c(C(F)(F)F)c3)C(=O)C2(C)C)cc1F [AR1, 4-(3-(4-cyano-3-(trifluoromethyl)phenyl)-5,5-dimethyl-4-oxo-2-thioxoimidazolidin-1-yl)-2-fluoro-N-methylbenzamide]
- ER stress markers [2]: up-regulation
- overall survival (CRPC LNCaP xenografts): about 40%
- maximum tolerated dose [3]: 240 mg/day
- side effects [3]: fatigue
- clusterin protein expression (clusterin (CLU); LNCaP, 10 μmol/L for 48 hrs, 5% FBS or 5% CSS, western blot): strongly increases
- Akt and p90Rsk phosphorylation [4]: increases
- autophagy (LNCaP cells [5]): induces autophagy

Compound: custirsen: antisense oligonucleotide reducing clusterin expression, CAGCAGCAGAGTCTTCATCAT (Seq. ID No.: 3), phosphorothioate backbone, 2′-O-methoxyethyl at nucleotides 1-4 and 18-21 (sugars from the 5' end e4 d13 e4, all phosphorothioate, methylation of C not given here; listed as Homo sapiens)
- HR (CRPC): 0.50
- gain in overall survival (CRPC): 7 month
- reduced death rate (CRPC): 50%
- reduction of R1881 induced AR transcriptional activity (PSA luciferase transactivation) [6]: 90%
- reduction of AR protein expression (AR): no effect
- apoptosis (sub-G1 fraction) (LNCaP cells [1]): 20%

Source: patent US20140088178A1, “COMBINATION OF ANTI-CLUSTERIN OLIGONUCLEOTIDE WITH ANDROGEN RECEPTOR ANTAGONIST FOR THE TREATMENT OF PROSTATE CANCER” (THE UNIVERSITY OF BRITISH COLUMBIA, priority 2011, published 2014)
